Experiment [1] relates to human peripheral blood mononuclear cells. Description: Inhibition of proliferation of PHA-stimulated mononuclear cells (BrdU incorporation). It is filed as cell-based. Conditions: PBMC, 1 μg/ml Phytohemagglutinine, 48 hours, test compounds 0.1-250 μM, read-out: MNC IC50. On the procedure:
(§1) Peripheral blood mononuclear cells (PBMC) from healthy human volunteers were freshly isolated by density gradient centrifugation. T lymphocytes (T cells, Tc) were isolated from PBMC fractions via nylon wool adherence. Cells were cultured in standard cell culture media and stimulated by addition of 1 μg/ml Phytohemagglutinine for 48 hours in 96 well flat-bottom microtitre plates. Test compounds were added at concentration ranges from 0.1-250 μM over the total assay period.
DNA synthesis of proliferating PBMC was assessed by incorporation of nucleotide analogue bromdesoxyuridine (BrdU) and subsequent detection of optical density (OD) at 450 nm.
(§2) Data output was based on raw data and calculation of relative proliferation response in relation to PHA-activated T cells in the absence of test compound (100% control).
(§3) The […] value of proliferation suppression was assessed by graphical evaluation.
(Dividing cells build labelled thymidine or BrdU into new DNA.)

For another experiment, the system named is T lymphocytes. Put plainly: Inhibition of proliferation of PHA-stimulated T lymphocytes (tritium thymidine incorporation). It is filed as cell-based. To be noted: Homo sapiens, T-lymphocyte, 1 μg/ml Phytohemagglutinine, 48 hours, test compounds 0.1-250 μM, read-out: T cells IC50. On the procedure:
as §1
DNA synthesis of proliferating T cells was determined by incorporation of radio labelled tritium thymidine and subsequent radio detection.
as §2, §3

In experiment [2] the target is purified, recombinant human DPIV (Homo sapiens, UniProt P27487). Description: Measurement of DPIV activity (fluorogenic substrate (Ala-Pro)2-R110).
Description: The enzymatic activity of DPIV was assessed by the hydrolysis of the fluorogenic substrate bis-(L-alanyl-prolyl)-Rhodamin-110 (bis-trifluoracetate, abbreviation (Ala-Pro)2-R110). The final substrate concentration was 0.5 μM.
The assay was performed in white microtitre plates for fluorescence measurements. The test items, substrate and enzyme were diluted in assay buffer. […] As controls, the DPIV activity in the absence of test items as well as the spontaneous hydrolysis of the substrate was determined.
Experiment [3] concerns the target human recombinant Aminopeptidase N (Homo sapiens, UniProt P15144). Put plainly: Measurement of APN activity (fluorogenic substrate (Ala)2-R110). It is filed as biochemical. Conditions: human recombinant APN approx. 5 nM, substrate 0.5 μM, pH 7.5. On the procedure:
Inhibitory effects of test items on the enzymatic activity of human recombinant Aminopeptidase N (final concentration approx. 5 nM) were assessed by using the fluorogenic substrate bis-(L-alanyl)-Rhodamine-110 (bis-trifluoracetate, abbreviation (Ala)2-R110) at a final concentration of 0.5 μM. The assay was performed in 0.05 M TRIS/HCl buffer pH 7.5, supplemented with 0.05% Triton (v/v), 0.05% BSA (w/v), 2 mM MgCl2.
The assay was performed in white microtitre plates for fluorescence measurements.
As controls, (Ala)2-R110 hydrolyzing activity in the absence of any test item as well as the spontaneous substrate hydrolysis was determined.
The release of the fluorescent hydrolysis product Rhodamine 110 was measured at an excitation wavelength of 485 nm and an emission wavelength of 530 nm by using a microtitre fluorescence reader immediately after substrate addition as well as after 30, 60 and 120 min.

Molecules are shown by their SMILES.

purified, recombinant human DPIV, sequence (P27487 whole entry): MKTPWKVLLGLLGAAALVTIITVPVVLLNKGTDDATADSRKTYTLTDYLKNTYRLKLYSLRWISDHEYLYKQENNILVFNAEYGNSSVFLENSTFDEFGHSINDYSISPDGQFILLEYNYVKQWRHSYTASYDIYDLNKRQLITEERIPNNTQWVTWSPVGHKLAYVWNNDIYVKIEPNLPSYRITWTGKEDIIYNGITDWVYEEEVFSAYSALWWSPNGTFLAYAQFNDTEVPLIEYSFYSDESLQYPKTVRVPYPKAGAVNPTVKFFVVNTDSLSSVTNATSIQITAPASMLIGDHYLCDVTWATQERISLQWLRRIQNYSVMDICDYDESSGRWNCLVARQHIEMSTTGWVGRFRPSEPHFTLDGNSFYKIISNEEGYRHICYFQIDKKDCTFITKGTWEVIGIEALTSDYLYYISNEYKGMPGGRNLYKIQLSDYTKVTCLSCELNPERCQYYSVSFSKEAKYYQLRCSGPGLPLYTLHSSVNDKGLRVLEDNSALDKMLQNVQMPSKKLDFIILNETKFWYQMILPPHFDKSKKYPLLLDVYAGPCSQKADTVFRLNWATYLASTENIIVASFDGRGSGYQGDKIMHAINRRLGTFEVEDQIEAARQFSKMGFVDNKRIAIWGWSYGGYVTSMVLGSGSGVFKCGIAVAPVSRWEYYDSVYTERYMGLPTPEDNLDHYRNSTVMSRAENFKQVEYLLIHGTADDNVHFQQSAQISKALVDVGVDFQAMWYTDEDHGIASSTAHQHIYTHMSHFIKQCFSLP
human recombinant Aminopeptidase N, sequence (P15144 whole entry): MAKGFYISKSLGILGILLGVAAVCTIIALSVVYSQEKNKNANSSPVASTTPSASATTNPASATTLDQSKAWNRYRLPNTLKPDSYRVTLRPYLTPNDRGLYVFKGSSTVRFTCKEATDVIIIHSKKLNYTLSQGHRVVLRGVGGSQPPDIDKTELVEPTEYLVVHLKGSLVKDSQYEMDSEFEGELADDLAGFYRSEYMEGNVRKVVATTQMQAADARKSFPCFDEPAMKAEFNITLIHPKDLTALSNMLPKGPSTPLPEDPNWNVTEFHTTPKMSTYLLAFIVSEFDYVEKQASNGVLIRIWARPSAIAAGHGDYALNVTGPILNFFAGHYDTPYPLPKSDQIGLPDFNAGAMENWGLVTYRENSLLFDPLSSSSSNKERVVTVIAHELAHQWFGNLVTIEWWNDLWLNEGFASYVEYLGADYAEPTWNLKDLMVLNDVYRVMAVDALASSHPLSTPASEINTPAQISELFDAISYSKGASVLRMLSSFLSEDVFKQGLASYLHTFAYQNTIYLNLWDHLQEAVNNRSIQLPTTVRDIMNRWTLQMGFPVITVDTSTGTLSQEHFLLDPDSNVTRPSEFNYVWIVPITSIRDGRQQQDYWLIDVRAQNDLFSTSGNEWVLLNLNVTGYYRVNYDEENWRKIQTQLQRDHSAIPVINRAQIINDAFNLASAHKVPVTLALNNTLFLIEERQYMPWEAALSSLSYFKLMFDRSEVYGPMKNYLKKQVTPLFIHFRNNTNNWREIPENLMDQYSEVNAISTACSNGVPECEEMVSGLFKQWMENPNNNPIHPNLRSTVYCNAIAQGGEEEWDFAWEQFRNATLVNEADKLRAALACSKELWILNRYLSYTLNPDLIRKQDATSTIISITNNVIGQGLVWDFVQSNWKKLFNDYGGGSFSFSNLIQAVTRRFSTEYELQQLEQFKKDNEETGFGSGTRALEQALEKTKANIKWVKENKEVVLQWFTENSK

Turning to `CC(C(=O)NCC(C)(C)CNC(=O)C(O)C(N)Cc1ccccc1)C(N)Cc1cc(F)ccc1F` (stereo not drawn) [drawing 266], the results for the IC50 (in experiment [1]; in the experiment on T lymphocytes) were 41.6 µM and 38.9 µM, respectively.
Regarding `CC(C)(CNC(=O)CC(N)Cc1cc(F)ccc1F)CNC(=O)C(O)C(N)Cc1ccc(-c2cncnc2)cc1` (stereo not drawn) [drawing 283], the IC50 was 70 µM in experiment [1] and 96.1 µM in the experiment with T lymphocytes.
With `NC(CC(=O)NCCCCNC(=O)C(O)C(N)Cc1ccccc1)C(=O)N1CCSC1` (stereo not drawn) [drawing 248], the values for the half-maximal inhibitory concentration (IC50) (in experiment [1]; in the experiment with T lymphocytes) were 28.3 µM and 35.2 µM, respectively.
The corresponding values for `CC(C)(CNCC(N)Cc1cc(F)ccc1F)CNC(=O)C(O)C(N)Cc1ccccc1` (stereo not drawn) [drawing 276] are 30.6 µM and 30.3 µM.
The corresponding values for `CCCCCCCC(=O)OC(C(=O)NCC(C)(C)CNC(=O)CC(N)Cc1cc(F)ccc1F)C(N)Cc1ccccc1` (stereo not drawn) [drawing 247] are 5.8 µM and 7.4 µM.
Regarding `CC(C)(NC(=O)CC(N)Cc1ccccc1)C(C)(C)NC(=O)C(O)C(N)Cc1ccccc1` (stereo not drawn) [drawing 226], the IC50 turned out to be 46.9 µM in experiment [1] and 16.1 µM in the experiment on T lymphocytes.
The corresponding values for `CCCCCCCC(=O)OC(C(=O)N(C)CCCNC(=O)CC(N)Cc1cc(F)ccc1F)C(N)Cc1ccccc1` (stereo not drawn) [drawing 250] are 11.1 µM and 9.5 µM.
The matching figures for `NC(CC(=O)NC1CCCC(NC(=O)C(O)C(N)Cc2ccccc2)C1)Cc1cc(F)ccc1F` (stereo not drawn) [drawing 269]: 200 µM and 113 µM.
Consider `CN(CCCNC(=O)CC(N)Cc1cc(F)ccc1F)C(=O)C(O)C(N)Cc1ccccc1` (stereo not drawn) [drawing 246], for which, in the experiment with T lymphocytes, the IC50 is no less than 200 µM.
As for `NC(CC(=O)NCCCNC(=O)C(O)C(N)Cc1ccccc1)Cc1cc(F)ccc1F` (stereo not drawn) [drawing 237], the IC50 in experiment [1] was 122 µM; in the experiment on T lymphocytes, 70 µM.
The corresponding values for `NC(CC(=O)NCCNC(=O)C(O)C(N)Cc1ccccc1)Cc1ccc2ccccc2c1` (stereo not drawn) [drawing 219] are 30.4 µM and 34 µM.
Turning to `CN(CCCNC(=O)C(O)C(N)Cc1ccccc1)C(=O)CC(N)Cc1cc(F)ccc1F` (stereo not drawn) [drawing 243], the IC50 is 157 µM in experiment [1] and no less than 200 µM in the experiment with T lymphocytes.
The matching figures for `CC(C)(CNC(=O)CC(N)Cc1cc(F)ccc1F)CNC(=O)C(O)C(N)Cc1ccc(-c2ccccc2)cc1` (stereo not drawn) [drawing 281]: 119 µM and 98.5 µM.
The matching figures for `NC(CC(=O)NCCCCNC(=O)C(O)C(N)Cc1ccc(C(=O)O)cc1)Cc1cc(F)ccc1F` (stereo not drawn) [drawing 251]: 130 µM and 112 µM.
Turning to `NC(CC(=O)NCCCCNC(=O)C(O)C(N)Cc1ccccc1)Cc1ccccc1` (stereo not drawn) [drawing 229], the IC50 in experiment [1] was 200 µM; in the experiment on T lymphocytes it was no less than 200 µM.
The corresponding values for `CC(C)(CNC(=O)CC(N)C(=O)N1CCSC1)CNC(=O)C(O)C(N)Cc1ccccc1` (stereo not drawn) [drawing 236] are 200 µM and no less than 200 µM.
The matching figures for `CCCCCCCCCCCCCCCC(=O)OC(C(=O)NCCCCNC(=O)CC(N)Cc1cc(F)ccc1F)C(N)Cc1ccccc1` (stereo not drawn) [drawing 259]: 2.1 µM and 4.1 µM.
For `C[C@@H]1CN(C(=O)CC(O)C(N)Cc2ccccc2)C[C@H](C)N1C(=O)CC(N)Cc1ccccc1` (stereo partly drawn) [drawing 225], the half-inhibitory concentration (IC50) was 84.5 µM in experiment [1] and 147 µM in the experiment with T lymphocytes.
The corresponding values for `CC(C)(CNC(=O)CC(N)Cc1cc(F)ccc1F)CNC(=O)C(O)C(N)Cc1ccc(-c2ccsc2)cc1` (stereo not drawn) [drawing 280] are 4.6 µM and 6.3 µM.
The matching figures for `CC(C)(CNC(=O)CC(N)Cc1cc(F)ccc1F)CNC(=O)C1OC(=O)NC1Cc1ccc(-c2ccccc2)cc1` (stereo not drawn) [drawing 275]: 200 µM and 139 µM.
With `CCC(CC)(CNC(=O)CC(N)Cc1cc(F)ccc1F)CNC(=O)C(O)C(N)Cc1ccccc1` (stereo not drawn) [drawing 265], the IC50 in the experiment on T lymphocytes is 7.2 µM.
Still for that read-out and setting: under `CC(C)(CNC(=O)C(O)C(N)Cc1ccccc1)CNC(=O)C(CC(=O)O)C(N)Cc1cc(F)ccc1F` (stereo not drawn) [drawing 262] stands 88.3 µM.
As to `CCCC(=O)NC(CC(=O)NCC(C)(C)CNC(=O)C(O)C(Cc1ccccc1)NC(=O)CCC)Cc1cc(F)ccc1F` (stereo not drawn) [drawing 244], the IC50 in experiment [1] came out at 54.5 µM; with T lymphocytes, 53.9 µM.
The corresponding values for `NC(CC(=O)N1CCCN(C(=O)C(O)C(N)Cc2ccccc2)CC1)Cc1cc(F)ccc1F` (stereo not drawn) [drawing 271] are 200 µM and 83.5 µM.
`CCCCCCCCCCCCCC(=O)NC(CC(=O)NCC(C)(C)CNC(=O)C(O)C(Cc1ccccc1)NC(=O)CCCCCCCCCCCCC)Cc1cc(F)ccc1F` (stereo not drawn) [drawing 264]: the IC50 in the experiment with T lymphocytes was 98.7 µM.
Take `CCCCCCCC(=O)NC(CC(=O)NCC(C)(C)CNC(=O)C(O)C(Cc1ccccc1)NC(=O)CCCCCCC)Cc1cc(F)ccc1F` (stereo not drawn) [drawing 239]: the IC50 in experiment [1] is 10.9 µM; in the experiment on T lymphocytes, 8.2 µM.
With `CN(CCCN(C)C(=O)C(O)C(N)Cc1ccccc1)C(=O)CC(N)Cc1cc(F)ccc1F` (stereo not drawn) [drawing 238], the IC50 in experiment [1] came out at 122 µM; with T lymphocytes, 70 µM.
Regarding `CCCCCC(=O)OC(C(=O)NCC(C)(C)CNC(=O)CC(N)Cc1cc(F)ccc1F)C(N)Cc1ccccc1` (stereo not drawn) [drawing 261], the values for the IC50 (in experiment [1]; with T lymphocytes) were 14.3 µM and 11.3 µM, respectively.
With `NC(CC(=O)Nc1cccc(NC(=O)C(O)C(N)Cc2ccccc2)c1)Cc1cc(F)ccc1F` (stereo not drawn) [drawing 270], the figures for the IC50 (in experiment [1]; in the experiment on T lymphocytes) were 9.1 µM and 9.4 µM, respectively.
As to `NC(CC(=O)NCCCCCCNC(=O)C(O)C(N)Cc1ccccc1)Cc1ccccc1` (stereo not drawn) [drawing 234], in experiment [1], the IC50 stood at 200 µM.
Consider `NC(CC(=O)NCCCNC(=O)C(O)C(N)Cc1ccccc1)Cc1cc(F)ccc1F` (stereo not drawn) [drawing 31], for which the IC50 in experiment [2] stood at 0.5 µM; in experiment [3], 0.02 µM.
The matching figures for `CCCCCCCCCCCCCCCCNC(CC(=O)NCC(C)(C)CNC(=O)C(O)C(Cc1ccccc1)NCCCCCCCCCCCCCCCC)Cc1cc(F)ccc1F` (stereo not drawn) [drawing 66]: greater than 50 µM and greater than 50 µM.
The corresponding values for `CCC(CC)(CNC(=O)CC(N)Cc1ccccc1)CNC(=O)C(O)C(N)Cc1ccccc1` (stereo not drawn) [drawing 22] are 2.6 µM and 2.8 µM.
The corresponding values for `NC(CC(=O)NCCNC(=O)C(O)C(N)Cc1ccccc1)Cc1cc(F)ccc1F` (stereo not drawn) [drawing 15] are 0.16 µM and 5.6 µM.
Regarding `NC(CC(=O)NCCCCCCNC(=O)C(O)C(N)Cc1ccccc1)Cc1ccccc1` (stereo not drawn) [drawing 28], the IC50 in experiment [2] was found to be 1.2 µM; in experiment [3] it was 0.41 µM.
The matching figures for `NC(CC(=O)NCCNC(=O)C(O)C(N)Cc1ccccc1)Cc1ccc2ccccc2c1` (stereo not drawn) [drawing 13]: 28 µM and 1.5 µM.
The corresponding values for `CCCCCCCCCCCCCCCC(=O)NC(CC(=O)NCC(C)(C)CNC(=O)C(O)C(Cc1ccccc1)NC(=O)CCCCCCCCCCCCCCC)Cc1cc(F)ccc1F` (stereo not drawn) [drawing 62] are greater than 50 µM and greater than 50 µM.
The matching figures for `CCCCCCCCCC(=O)OC(C(=O)NCC(C)(C)CNC(=O)CC(N)Cc1cc(F)ccc1F)C(N)Cc1ccccc1` (stereo not drawn) [drawing 48]: 0.2 µM and greater than 50 µM.
On to `NC(CC(=O)NC(CCCNC(=O)C(O)C(N)Cc1ccccc1)C(=O)O)Cc1cc(F)ccc1F` (stereo not drawn) [drawing 35], for which the IC50 in experiment [2] turned out to be 0.2 µM; in experiment [3], 6.2 µM.
In the case of `NC(CNC(=O)c1cccc(NC(=O)C(O)C(N)Cc2ccccc2)c1)Cc1cc(F)ccc1F` (stereo not drawn) [drawing 71], the IC50 in experiment [2] was 1.7 µM; in experiment [3] it was 0.009 µM.
The matching figures for `CCCCCCCCCCCCCC(=O)OC(C(=O)NCC(C)(C)CNC(=O)CC(N)Cc1cc(F)ccc1F)C(N)Cc1ccccc1` (stereo not drawn) [drawing 46]: 1 µM and 21 µM.
The corresponding values for `CC(C)(CNC(=O)CC(N)Cc1cc(F)ccc1F)CNC(=O)C(OC(=O)CCCc1ccccc1)C(N)Cc1ccccc1` (stereo not drawn) [drawing 49] are 0.3 µM and 15 µM.
Regarding `NC(CC(=O)Nc1cccc(NC(=O)C(O)C(N)Cc2ccccc2)c1)Cc1cc(F)ccc1F` (stereo not drawn) [drawing 64], the IC50 in experiment [2] is 0.5 µM; in experiment [3] it was 0.35 µM.
With `CC(C)(CNCC(N)Cc1cc(F)ccc1F)CNC(=O)C(O)C(N)Cc1ccccc1` (stereo not drawn) [drawing 70], the IC50 in experiment [2] was 30 µM; in experiment [3] it was 0.33 µM.
For `CC(C)(CNC(=O)CC(N)Cc1cc(F)ccc1F)CNC(=O)C(O)C(N)Cc1ccc(O)cc1` (stereo not drawn) [drawing 73], the values for the IC50 in experiment [2] and in experiment [3] were 4.6 µM and greater than 50 µM, respectively.
In the case of `CC(C)(CNC(=O)C(O)C(N)Cc1ccccc1)CNC(=O)C(CC(=O)O)C(N)Cc1cc(F)ccc1F` (stereo not drawn) [drawing 56], the results for the IC50 in experiment [2] and in experiment [3] were 3.7 µM and 1.4 µM, respectively.

As usually defined, the IC50 is the concentration at which inhibition is half-maximal.
